These results are taken from ChEMBL document CHEMBL1121951, “Synthesis and evaluation of N-(phenylalkyl)acetohydroxamic acids as potential substrates for N-arylhydroxamic acid N,O-acyltransferase” (1982).

A short description of test [1]: AHAT-catalyzed transacetylation rate at 0.5-1.0 concentration; No effect. In kind it is functional.
The species named for test [2] is Cricetulus griseus. Description: Effect of the compound on hamster hepatic N-arylhydroxamic acid N,O-acyltransferase activity.
Test [3] in a line: Effect for methylthio adduct formation at 1 mM concentration. The format is functional.
A short description of test [4]: Effect for methylthio adduct formation at 2 mM concentration. The format is functional.
For test [5], the species on record is Cricetulus griseus. The experiment in a line: Effect of the compound on hamster hepatic N,O-acyltransferase (AHAT) activity. In kind it is functional.
The species entered for the next test is Rattus norvegicus. Description: Transacetylation rate in rat hepatic AHAT preparation. In kind it is functional.
For test [6], the system named is Cricetinae gen. sp. Description: Effect for methylthio adduct formation in presence of 0.1 mM N-hydroxy-4-aminobiphenyl and 10 mM N-acetylmethioninein hamster hepatic AHAT preparation at 30 min. In kind it is functional, Cricetulus griseus.
Test [7] can be described thus: AHAT-catalyzed transacetylation rate at 0.5-1.0 concentration. The format is functional.
Test [8] is described as follows: Compound inhibit the AHAT-catalyzed transacetylation activity; Active. The format is functional.
The test system of test [9] is Cricetinae gen. sp. The experiment in a line: Transacetylation rate in hamster hepatic AHAT preparation. The format is functional, Cricetulus griseus.

Activity calls are given as the source filed them. The rule behind the calls is not given here.

On to `CC(=O)N(O)C1CCC(c2ccccc2)CC1` (stereo unspecified), for which the result in test [1] was inactive. The Activity in the test filed under Cricetulus griseus [2] is below 1%. Also, the Reduction in test [3] came to 13%; in [4], 23%.

`CC(=O)N(O)CCCc1ccccc1` returned an Activity in the test filed under Cricetulus griseus [2] below 1%.

`CC(=O)N(O)CCc1ccccc1` displayed an Activity in the test filed under Cricetulus griseus [5] below 1%. The Reduction turned out to be 8% in test [3] and 17% in [4].

In the case of `CC(=O)N(O)CCCCc1ccccc1`, the Activity in the test filed under Cricetulus griseus [2] is below 1%; in the test filed under Rattus norvegicus, 0.73 nmol/mg/min.

As to `CC(=O)N(O)Cc1ccccc1`, the Activity in the test listed under Cricetulus griseus [2] is below 1%.

Consider `CC(=O)N(O)c1ccc(-c2ccccc2)cc1`, for which the Activity in the test with Cricetinae gen. sp. [6] was 120 nM; in the test listed under Rattus norvegicus, 4.99 nM/min; in test [7] it was 10%; in the test with Cricetinae gen. sp. [9], 9.14 nM/min. The result in [8] was Active.
